Test [1] concerns MRSA ATCC BAA-44. The experiment in a line: Biofilm inhibition assay (crystal violet). To be noted: for IC50: MRSA ATCC BAA-44; for inhibition at 5 µM: MRSA ATCC BAA 44; for dose dependence of biofilm inhibition (in words): relative to MIC. The test is classed as cell-based, Staphylococcus aureus. How it is done: (§1) General Information. Methicillin-resistant Staphylococcus aureus (MRSA) strains were obtained from the Laboratory of Professor Christian Melander (NCSU) ATCC (33591, BAA 44, BAA 1685, BAA 1770, BAA 43 300) and colonies were grown on solid media as instructed. Mueller-Hinton broth (MHB, 211443-BD), tryptic soy broth (TSB, Remel: R455052) and D-glucose (CAS: 492-62-6) were purchased from Fisher Scientific. Tryptic soy agar (TSA, cat. #22091) and Linezolid (cat. # P70014) were purchased from Sigma-Aldrich. Bacteria for biofilm inhibition and dispersion assays were cultured overnight in TSBG (tryptic soy broth with 0.5% glucose supplement). All assays were run in duplicate and repeated at least two separate times for MIC assays and at least four separate times for biofilm inhibition and dispersion assays. All compounds were dissolved molecular biology grade DMSO as 100 mM stock solutions and further diluted to 10 and 1 mM stock solutions as needed. Optical densities were measured using a Thermo Scientific Genesys 20 spectrophotometer. Data for biofilm inhibition and dispersion assays was collected using a BioTek ELx808 Microplate Reader. All graphs were generated and analyzed using GraphPad Prism 7.
(§2) Biofilm Inhibition Assay. Studies were performed using the standard method described in S. A. Rogers and C. Melander, Angew Chem Int Ed, 2008, 47, 5229-5231. Briefly, biofilm inhibition assays were performed by taking an overnight culture of bacterial strain and subculturing it at an OD600 of 0.01 into the necessary growth liquid medium (LB for A. baumannii, LBNS for P. aeruginosa, Stainer-Scholte medium that was supplemented with 10 μL/mL of 100× nutrient complex for B. bronchiseptica and TSB w/0.3% glucose for S. aureus) for the strain. The compound being tested was then added at a predetermined concentration and then aliquoted (100 μL) into the wells of a 96-well PVC microtiter plate (wells not used for samples are filled with 100 μL of de-ionized water). Plates were then wrapped in GLAD Press n' Seal and incubated under stationary conditions at 37° C. After 24 hours, the media was discarded from the wells and the plates were washed thoroughly with tap water. Plates were then stained with 100 μL of 0.1% solution of crystal violet (CV) and then incubated at an ambient temperature for 30 minutes. Sample plates were then washed with tap water again and the remaining stain was solubilized with 200 μL of 95% ethanol. Biofilm inhibition was quantitated by measuring the OD540 for each well by transferring 125 μL of the solubilized CV stain into a polystyrene microtiter dish for analysis. Biofilm inhibition was quantified by measuring the OD540 of each well and calculated as a percentage of the control (no compound); a negative control lane wherein no biofilm was formed served as a background and was subtracted out.
(§3) Percent inhibition was then plotted against concentration in Prism 7. Each of the four experiments were plotted separately and analyzed by a normalized nonlinear regression. The IC50 values reported represent an arithmetic mean of the four IC50 values. Biofilm data represent four separate experiments, with each experiment performed in duplicate (average of 8 data points for each concentration tested, unless otherwise noted)

Test [2] has as its system MRSA Strain 1770. The experiment in a line: Biofilm inhibition assay (crystal violet). To be noted: for inhibition at 5 µM / inhibition at 40 µM: Staphylococcus aureus, read-out: % Biofilm Inhibition (5/40 μM). The test is classed as cell-based, Staphylococcus aureus. How it is done:
as §1, §2, §3

Test [3] relates to MRSA Strain 1685. The experiment in a line: Biofilm inhibition assay (crystal violet). To be noted: Staphylococcus aureus, read-out: % Biofilm Inhibition (5/40 μM). In kind it is cell-based. The method, then: as §1, §2, §3
The test system of test [4] is MRSA Strain 43300. As to the kind of experiment: Biofilm inhibition assay (crystal violet). In kind it is cell-based. To be noted: Staphylococcus aureus, read-out: % Biofilm Inhibition (5/40 μM). The method, then:
as §1, §2, §3

Test [5] relates to MRSA ATCC BAA-44. As to the kind of experiment: Biofilm dispersion assay (crystal violet, pre-formed biofilm). The test is classed as cell-based, Staphylococcus aureus. To be noted: for % dispersion of pre-formed biofilm: 40 μM; for % dispersion of pre-formed biofilm at 5 µM: MRSA ATCC BAA 44; for IC50: MRSA ATCC BAA-44. The method, then: as §1
Biofilm Dispersion Assay. Studies were performed using the standard method described in J. J. Richards, T. E. Ballard and C. Melander, Org Biomol Chem, 2008, 6, 1356-1363. Briefly, dispersion assays were performed by taking an overnight culture of bacterial strain and subculturing it at an OD600 of 0.01 into the necessary growth liquid medium. The resulting bacterial suspension was aliquoted (100 μL) into the wells of a 96-well PVC microtiter plate. Plates were then wrapped in GLAD Press n' Seal followed by an incubation under stationary conditions at an ambient temperature. After 24 hours, the media was discarded from the wells and the plates were washed thoroughly with tap water. Predetermined concentrations of the test compound were then made in the same medium used to initially grow the biofilms and then aliquoted (100 μL) into the wells of the 96-well PVC microtiter plate with the established biofilms. Plates were then wrapped in GLAD Press n'Seal and incubated under stationary conditions at 37° C. After 24 hours, the media was discarded from the wells and the plates were washed thoroughly with tap water. Plates were then stained with 100 μL of 0.1% solution of crystal violet (CV) and then incubated at room temperature for 30 minutes. Plates were then washed with tap water again and the remaining stain was solubilized with 200 μL of 95% ethanol. Biofilm dispersion was quantitated by measuring the OD540 for each well by transferring 125 μL of the solubilized CV stain into a polystyrene microtiter dish for analysis. Biofilm inhibition was quantified by measuring the OD540 of each well and calculated as a percentage of the control (no compound), a negative control lane wherein no biofilm was formed served as a background and was subtracted out.
Percent dispersion was then plotted against concentration in Prism 7. Each of the four experiments were plotted separately and analyzed by a normalized nonlinear regression. The IC50 values reported represent an arithmetic mean of the four IC50 values. Biofilm data represent four separate experiments, with each experiment performed in duplicate (average of 8 data points for each concentration tested, unless otherwise noted)

As usually defined, the IC50 is the concentration at which inhibition is half-maximal. A high value points to weaker potency in that assay. Turning to `O=C1NC(C(Cl)(Cl)Cc2ccccc2)O/C1=C\c1ccc(C(F)(F)F)cc1` (stereo not shown) [Compound 2, (Z)-2-(1,1-dichloro-2-phenylethyl)-5-(4-(trifluoromethyl)benzylidene)oxazolidin-4-one], in test [1], the IC50 was found to be 1.4 µM and the “dose dependence of biofilm inhibition (in words)” value is “dose-dependent biofilm inhibition at concentrations well below their MIC”. In test [1] (Staphylococcus aureus), the inhibition at 5 µM amounted to 82% and the IC50 is 1.2 µM. In test [2], the “biofilm inhibition activity (in words)” value is “virtually no activity”, the inhibition at 5 µM was found to be 3% and the inhibition at 40 µM is -16%. In test [3], the inhibition at 5 µM was 19% and the inhibition at 40 µM was 17%. Further, in test [4], the inhibition at 5 µM was found to be 41% and the inhibition at 40 µM is 63%. For the same molecule, the “% dispersion of pre-formed biofilm” value in test [5] is 69%. In test [5] (Staphylococcus aureus), the % dispersion of pre-formed biofilm at 5 µM came to 57% and inhibition was half-maximal at 4.3 µM (IC50).
As to `CCCCC(Cl)(Cl)C1NC(=O)/C(=C/c2ccc(C(F)(F)F)cc2)O1` (stereo not shown) [Compound 1, (Z)-2-(1,1-dichloropentyl)-5-(4-(trifluoromethyl)benzylidene)oxazolidin-4-one], the IC50 in test [1] amounted to 1 µM; in test [1] (Staphylococcus aureus) it was 0.78 µM; in test [5], 5.7 µM; in test [5] (Staphylococcus aureus), 4.7 µM. For the same molecule, the inhibition at 5 µM came out at 89% in test [1] (Staphylococcus aureus), 49% in test [2], 45% in test [3] and 59% in test [4]. Moreover, the “dose dependence of biofilm inhibition (in words)” value in test [1] is “dose-dependent biofilm inhibition at concentrations well below their MIC”. Also, the results for the inhibition at 40 µM in test [2], in test [3] and in test [4] were 66%, 66% and 54%, respectively. The “% dispersion of pre-formed biofilm” value in test [5] is given as 87%. In test [5] (Staphylococcus aureus), this molecule displayed a % dispersion of pre-formed biofilm at 5 µM of 59%.

The values are drawn from patent US10822315B2, “5-benzylidene-4-oxazolidinones” (NORTH CAROLINA STATE UNIVERSITY, priority 2016, dated 2020).
